≈ marks a conversion by molar mass, not a printed value.
How the values were obtained:
[1] = system: E. coli acrZ knockout strain; experiment: MIC, efflux pump knockout acrZ; type: cell-based; settings: Escherichia coli, read-out: MIC acrZ
Description: (§1) The inoculum used for all the experiments is derived from a single seed lot that is maintained as glycerol stocks at −80 °C and are sub cultured on LB plate for isolated colonies. Single colony of each strain is grown in M9 medium. All test compound stocks and dilutions are prepared in DMSO. Serial two-fold dilutions of compounds are prepared separately, with the concentrations ranging from 2 mg/mL to 0.015 mg/mL. To 150 µl (3–7 × 10^5 CFU/ml) of bacterial culture in 96 well microtitre plates, 3 μL compound from each of the dilutions is added to respective wells to obtain final concentrations ranging from 40 µg/mL to 0.3 µg/mL of the test compounds. Media control, culture control and appropriate reference drug controls are included. […] Growth is monitored by checking absorbance at 600 nm (A600). […] The samples from MIC and above concentrations are plated for MBC (Minimum Bactericidal Concentration). The samples are diluted 1:10 and plated on LB agar plates. […] The killing kinetics is determined by enumerating survivors at various time points following compound exposure. E. coli cells (~10^7 CFU/ml; A600 of 0.1) are treated with various concentrations (40 µg/mL to 0.3 µg/mL) of compounds in a 96-well microtitre plate. […] Data is expressed as the log10 CFU for each drug treatment.

[2] = system: E. coli bcr knockout strain; experiment: MIC, efflux pump knockout bcr; type: cell-based; settings: Escherichia coli, read-out: MIC bcr
Description: as §1

[3] = system: E. coli emrE knockout strain; experiment: MIC, efflux pump knockout emrE; type: cell-based; settings: Escherichia coli, read-out: MIC emrE
Description: as §1

[4] = system: Shigella flexneri clinical strain; experiment: MIC, Shigella flexneri; type: cell-based
Description: as §1

E. coli BW25113 = experiment: Neutropenic thigh infection, E. coli BW25113; type: in vivo, BALB/c mice

Cc1sc(NC(=O)c2ccc([N+](=O)[O-])s2)nc1-c1ccccc1 [compound 7, N-(5-Methyl-4-phenylthiazol-2-yl)-5-nitrothiophene-2-carboxamide]
MIC [1]: > 40 µg/mL | MIC [2]: > 40 µg/mL | MIC [3]: > 40 µg/mL

O=C(Nc1nc(-c2ccc(F)cc2F)cs1)c1ccc([N+](=O)[O-])s1 [compound 12, N-(4-(2,4-difluorophenyl)thiazol-2-yl)-5-nitrothiophene-2-carboxamide]
MIC Shigella flexneri [4]: 10 µg/mL (≈ 27.2 µM)

O=C(Nc1nc(-c2ccc(F)cc2)cs1)c1ccc([N+](=O)[O-])s1 [compound 15, N-(4-(4-Fluorophenyl)thiazol-2-yl)-5-nitrothiophene-2-carboxamide]
Log10CFU Mean Diff. vs. Untreated Controls (E. coli BW25113; Study TI-2014-008, BW25113, 30mg/kg per oral): 0.9167 Log10CFU | Log10CFU Mean Diff. vs. Untreated Controls (E. coli BW25113; Study TI-2014-008, BW25113, 100mg/kg per oral): 1.643 Log10CFU | efficacy in thigh infection model (in words) (E. coli BW25113; WT E. coli BW25113): significantly bactericidal
